Test results published in publication PMC10629545, “Identification of a second glycoform of the clinically prevalent O1 antigen from Klebsiella pneumoniae” (Proceedings of the National Academy of Sciences of the …, 2023).

Target: T1, His6-WbbZ (WbbZ pyruvyltransferase) (Klebsiella pneumoniae, UniProt A0A0C4KUT2)
T1 construct: His6-tagged, expressed in E. coli TOP10, Ni-NTA purified
Test: PAGE of reaction products; MS and NMR
Format: biochemical
Conditions: pyruvyl donor, 10 mM PEP; acceptor formed by WbbY; pH 7.5, 10 mM MgCl2, 30 °C

T1 sequence (A0A0C4KUT2 entry or part of it): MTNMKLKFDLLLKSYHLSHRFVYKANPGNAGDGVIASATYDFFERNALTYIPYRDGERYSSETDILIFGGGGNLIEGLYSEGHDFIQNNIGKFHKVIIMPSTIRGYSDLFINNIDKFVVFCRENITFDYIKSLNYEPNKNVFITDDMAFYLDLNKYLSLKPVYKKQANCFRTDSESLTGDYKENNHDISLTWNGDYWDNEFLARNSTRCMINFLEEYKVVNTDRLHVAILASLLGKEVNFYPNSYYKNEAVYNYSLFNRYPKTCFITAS

C=C(OP(=O)(O)O)C(=O)O [PEP]
PAGE of reaction products; MS and NMR: phosphoenolpyruvate (PEP)-dependent reduction of the size of the reaction products
